Test results published in patent publication US8093232B2, “2α-methyl-19-nor-(20S)-1α-hydroxy-bishomopregnacalciferol and its uses” (Wisconsin Alumni Research Foundation, priority 2004, dated 2012).

Legend:
[1] = molecular target: T1, full-length recombinant rat vitamin D receptor (Rattus norvegicus, UniProt P13053); assay: Vitamin D receptor competitive binding with [3H]-1,25(OH)2D3; settings: full-length recombinant rat VDR, FIG. 1
T1 construct: Full-length recombinant rat receptor was expressed in E. coli BL21 (DE3) Codon Plus RIL cells; histidine tag (C); made in house; host or cells: E. coli BL21 (DE3) Codon Plus RIL
T1 sequence (P13053 1-423): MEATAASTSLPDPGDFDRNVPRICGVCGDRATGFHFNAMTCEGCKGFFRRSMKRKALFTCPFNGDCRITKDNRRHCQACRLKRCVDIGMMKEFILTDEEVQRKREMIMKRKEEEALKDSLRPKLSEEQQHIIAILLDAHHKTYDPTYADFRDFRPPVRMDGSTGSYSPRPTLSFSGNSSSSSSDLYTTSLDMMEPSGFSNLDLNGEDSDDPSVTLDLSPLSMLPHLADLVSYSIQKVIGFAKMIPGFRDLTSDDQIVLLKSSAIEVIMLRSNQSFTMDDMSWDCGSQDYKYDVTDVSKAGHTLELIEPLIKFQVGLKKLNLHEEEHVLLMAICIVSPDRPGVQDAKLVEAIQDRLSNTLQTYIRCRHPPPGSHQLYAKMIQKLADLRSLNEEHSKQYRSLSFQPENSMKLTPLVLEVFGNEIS
Source text: Vitamin D Receptor Binding
Full-length recombinant rat receptor was expressed in E. coli BL21 (DE3) Codon Plus RIL cells and purified to homogeneity using two different column chromatography systems. The first system was a nickel affinity resin that utilizes the C-terminal histidine tag on this protein. The protein that was eluted from this resin was further purified using ion exchange chromatography (S-Sepharose Fast Flow). Aliquots of the purified protein were quick frozen in liquid nitrogen and stored at −80° C. until use. For use in binding assays, the protein was diluted in TEDK50 (50 mM Tris, 1.5 mM EDTA, pH7.4, 5 mM DTT, 150 mM KCl) with 0.1% Chaps detergent. The receptor protein and ligand concentration were optimized such that no more than 20% of the added radiolabeled ligand was bound to the receptor.
Radiolabeled and unlabeled ligands were added to 100 mcl of the diluted protein at a final ethanol concentration of ≦10%, mixed and incubated overnight on ice to reach binding equilibrium. The following day, 100 mcl of hydroxylapatite slurry (50%) was added to each tube and mixed at 10-minute intervals for 30 minutes. The hydroxylapaptite was collected by centrifugation and then washed three times with Tris-EDTA buffer (50 mM Tris, 1.5 mM EDTA, pH 7.4) containing 0.5% Titron X-100. […] Total binding was determined from the tubes containing only radiolabeled ligand.

[2] = test system: Human promyelocytic leukemia (HL60) cells; assay: HL-60 cell differentiation (nitro blue tetrazolium reduction); type: cell-based; settings: FIG. 2; for EC50: HL60 cells, 4 days, NBT reduction
Protocol: The study drugs were dissolved in ethanol and the concentrations determined using UV spectrophotometry. Serial dilutions were prepared so that a range of drug concentrations could be tested without changing the final concentration of ethanol (≦0.2%) present in the cell cultures.
Human promyelocytic leukemia (HL60) cells were grown in RPMI-1640 medium containing 10% fetal bovine serum. The cells were incubated at 37° C. in the presence of 5% CO2.
HL60 cells were plated at 1.2×10^5 cells/ml. Eighteen hours after plating, cells in duplicate were treated with drug. […] The percentage of differentiated cells was determined by counting a total of 200 cells and recording the number that contained intracellular black-blue formazan deposits. Verification of differentiation to monocytic cells was determined by measuring phagocytic activity (data not shown).

[3] = test system: 24-hydroxylase (24 Ohase) gene promoter; assay: In vitro transcription assay (24-hydroxylase promoter luciferase reporter in ROS 17/2.8 bone cells); type: cell-based; settings: FIG. 3
Protocol: In Vitro Transcription Assay
Transcription activity was measured in ROS 17/2.8 (bone) cells that were stably transfected with a 24-hydroxylase (24 Ohase) gene promoter upstream of a luciferase reporter gene (Arbour et al., 1998). Cells were given a range of doses. Sixteen hours after dosing the cells were harvested and luciferase activities were measured using a luminometer.
RLU=relative luciferase units.

[4] = test system: vitamin D-deficient rats; assay: Bone calcium mobilization (serum calcium) in vitamin D-deficient rats; type: in vivo, rat
Protocol: (§1) Intestinal Calcium Transport and Bone Calcium Mobilization
(§2) Male, weanling Sprague-Dawley rats were placed on Diet 11 (0.47% Ca) diet+AEK for one week followed by Diet 11 (0.02% Ca)+AEK for 3 weeks. The rats were then switched to a diet containing 0.47% Ca for one week followed by two weeks on a diet containing 0.02% Ca. Dose administration began during the last week on 0.02% calcium diet. Four consecutive ip doses were given approximately 24 hours apart. Twenty-four hours after the last dose, blood was collected from the severed neck and the concentration of serum calcium determined as a measure of bone calcium mobilization. The first 10 cm of the intestine was also collected for intestinal calcium transport analysis using the everted gut sac method.

[5] = test system: vitamin D-deficient rats; assay: Intestinal calcium transport (everted gut sac) in vitamin D-deficient rats; type: in vivo, rat; settings: for intestinal calcium transport: everted gut sac, FIG. 5
Protocol: as §1, §2

| SMILES | binding to the receptor as compared to the standard 1,25-(OH)2D3 [1] | Ki ([1]; read-out: Ki, competition with [3H]-1,25(OH)2D3 for binding to the vitamin D receptor) [nM] | potency on HL-60 cell differentiation compared to 1,25(OH)2D3 [2] | EC50 ([2]; Homo sapiens, HL-60, 96 h) [nM] | transcriptional activity in bone cells compared to 1α,25-dihydroxyvitamin D3 [3] | EC50 ([3]; ROS 17/2.8 cells, 24-OHase promoter-luciferase, 16 h, read-out: EC50, transcriptional activity in bone cells) [nM] | mobilization of bone calcium ([4]; 87 pmol/day for 4 consecutive days, rats on 0.02% Ca diet, FIG. 4) | mobilization of bone calcium ([4]; 260 pmol/day, 780 pmol/day and 7020 pmol/day, rats on 0.02% Ca diet, FIG. 4) | bone calcium mobilization activity as compared to 1,25(OH)2D3 ([4]; FIG. 4, overall) | intestinal calcium transport ([5]; 87 pmol/day, 260 pmol/day or 780 pmol/day) | intestinal calcium transport ([5]; 2340 pmol/day) | activity in stimulating intestinal calcium transport as compared to 1,25(OH)2D3 ([5]; FIG. 5, overall) | EC50 [2] [nM] | serum calcium levels (bone calcium mobilization) ([4]; rats on 0.02% Ca diet, 4 consecutive ip doses, all dosages, FIG. 4) | intestinal calcium transport ([5]; 260 pmol/day) |
| --- | --- | --- | --- | --- | --- | --- | --- | --- | --- | --- | --- | --- | --- | --- | --- |
| CCC(C)C1CCC2C(=CC=C3CC(O)C(C)C(O)C3)CCCC21C [2α-methylbisP, 2α-methyl-19-nor-(20S)-1α-hydroxy-bishomopregnacalciferol] | bound slightly less | 1.6 | almost as potent as 1,25(OH)2D3 | 37 | about the same transcriptional activity | 4.4 | did not result in mobilization of bone calcium | without any substantial effect | very little bone calcium mobilization activity | does not promote intestinal calcium transport | significant intestinal calcium transport activity was recorded | very little activity | – | – | – |
| C=C1/C(=C\C=C2/CCC[C@]3(C)[C@@H]([C@H](C)CCCC(C)(C)O)CC[C@@H]23)C[C@@H](O)C[C@@H]1O [1,25(OH)2D3, 1α,25-dihydroxyvitamin D3, reference compound] | – | – | – | – | – | – | – | – | – | – | – | – | 3.6 | increased serum calcium levels at all dosages | promotes a significant increase |
